Source: the OligoGym collection
HELM strings list units from the 5' end as sugar, base in round brackets, then linkage (d deoxyribose, r ribose, m 2'-O-methyl, p phosphodiester). Strings are as the collection lists them; they lack the last nucleoside at the 3' end of the tested compound. [moe] = 2'-O-(2-methoxyethyl) (MOE); [sp] = phosphorothioate linkage; [m5C] = 5-methylcytosine

Molecular target: HTT
Experiment: mouse, dose not given
Conditions: ASO

Substance | 3 h FOB score
RNA1{[moe](G)[sp].[moe](T)p.[moe]([m5C])[sp].[moe](A)[sp].[moe]([m5C])[sp].d(A)[sp].d(G)[sp].d([m5C])[sp].d(T)[sp].d(T)[sp].d(T)[sp].d(T)[sp].d(A)[sp].d(T)[sp].d(T)[sp].[moe](T)[sp].[moe]([m5C])p.[moe]([m5C])[sp].[moe](A)}$$$$ (last 3' nucleoside missing) | 1.25 score 0-7
RNA1{[moe](G)[sp].[moe](T)p.[moe]([m5C])p.[moe](A)p.[moe]([m5C])[sp].d(A)[sp].d(G)[sp].d([m5C])[sp].d(T)[sp].d(T)[sp].d(T)[sp].d(T)[sp].d(A)[sp].d(T)[sp].d(T)[sp].[moe](T)p.[moe]([m5C])p.[moe]([m5C])[sp].[moe](A)}$$$$ (last 3' nucleoside missing) | 1 score 0-7
RNA1{[moe](G)[sp].[moe]([m5C])p.[moe](A)[sp].[moe](T)[sp].[moe](T)[sp].d(A)[sp].d([m5C])[sp].d(T)[sp].d(T)[sp].d(T)[sp].d(T)[sp].d(T)[sp].d(A)[sp].d([m5C])[sp].d(A)[sp].[moe](A)[sp].[moe](T)p.[moe](G)[sp].[moe](G)}$$$$ (last 3' nucleoside missing) | 5.25 score 0-7
RNA1{[moe](G)[sp].[moe]([m5C])p.[moe](A)p.[moe](T)p.[moe](T)[sp].d(A)[sp].d([m5C])[sp].d(T)[sp].d(T)[sp].d(T)[sp].d(T)[sp].d(T)[sp].d(A)[sp].d([m5C])[sp].d(A)[sp].[moe](A)p.[moe](T)p.[moe](G)[sp].[moe](G)}$$$$ (last 3' nucleoside missing) | 1 score 0-7
RNA1{[moe](G)[sp].[moe]([m5C])p.[moe](A)p.[moe](T)p.[moe]([m5C])[sp].d(T)[sp].d(T)[sp].d(G)[sp].d(T)[sp].d(T)[sp].d(T)[sp].d(T)[sp].d(A)[sp].d([m5C])[sp].d([m5C])[sp].[moe](A)p.[moe]([m5C])p.[moe]([m5C])[sp].[moe]([m5C])}$$$$ (last 3' nucleoside missing) | 1.5 score 0-7
RNA1{[moe](G)[sp].[moe]([m5C])p.[moe](T)p.[moe](T)p.[moe](T)[sp].d(G)[sp].d(A)[sp].d(T)[sp].d(T)[sp].d(T)[sp].d(T)[sp].d(T)[sp].d(A)[sp].d([m5C])[sp].d([m5C])[sp].[moe](A)p.[moe](G)p.[moe](T)[sp].[moe](T)}$$$$ (last 3' nucleoside missing) | 1 score 0-7
RNA1{[moe](G)[sp].[moe]([m5C])p.[moe](T)p.[moe](T)p.[moe](T)[sp].d(T)[sp].d(G)[sp].d(A)[sp].d(A)[sp].d(A)[sp].d(T)[sp].d(T)[sp].d([m5C])[sp].d(T)[sp].d([m5C])[sp].[moe]([m5C])p.[moe](A)p.[moe](T)[sp].[moe]([m5C])}$$$$ (last 3' nucleoside missing) | 6.75 score 0-7
RNA1{[moe](G)[sp].[moe]([m5C])p.[moe](T)p.[moe](T)p.[moe](T)p.[moe](G)p.d(A)[sp].d(T)[sp].d(T)[sp].d(T)[sp].d(T)[sp].d(T)[sp].d(A)[sp].d([m5C])[sp].d([m5C])[sp].d(A)[sp].[moe](G)p.[moe](T)[sp].[moe](T)}$$$$ (last 3' nucleoside missing) | 0.5 score 0-7
RNA1{[moe](G)[sp].[moe]([m5C])p.[moe]([m5C])p.[moe](A)p.[moe](T)[sp].d(A)[sp].d(T)[sp].d(T)[sp].d(T)[sp].d(T)[sp].d([m5C])[sp].d(T)[sp].d([m5C])[sp].d(A)[sp].d(A)[sp].[moe]([m5C])p.[moe](T)p.[moe](T)[sp].[moe](T)}$$$$ (last 3' nucleoside missing) | 0 score 0-7
RNA1{[moe](T)[sp].[moe](G)p.[moe]([m5C])p.[moe](A)p.[moe](T)p.[moe](T)p.d(A)[sp].d([m5C])[sp].d(T)[sp].d(T)[sp].d(T)[sp].d(T)[sp].d(T)[sp].d(A)[sp].d([m5C])[sp].d(A)[sp].[moe](A)p.[moe](T)[sp].[moe](G)}$$$$ (last 3' nucleoside missing) | 6.5 score 0-7
